According to article PMC5078040 (Oncotarget, 2016):
pEC50: −log10 of the molar value.

Columns and labels:
NDR2 = target: T1, NDR2 (Homo sapiens, UniProt Q9Y2H1); experiment: KinomeScan; assay type: binding; details: 1uM
T1 construct: purchased DiscoveRx KINOMEscan

TIE2 = target: T2, TIE2 (Homo sapiens, UniProt Q02763); experiment: KinomeScan; assay type: binding; details: 1uM
T2 construct: purchased DiscoveRx KINOMEscan

ERK2 = target: T3, ERK2 (Homo sapiens, UniProt P28482); experiment: KinomeScan; assay type: binding; details: 1uM
T3 construct: purchased DiscoveRx KINOMEscan

FLT3(D835H) = target: T4, FLT3(D835H) (Homo sapiens, UniProt P36888, D835H); experiment: KinomeScan; assay type: binding; details: 1uM
T4 construct: purchased DiscoveRx KINOMEscan

CLK4 = target: T5, CLK4 (Homo sapiens, UniProt Q9HAZ1); experiment: KinomeScan; assay type: binding; details: 1uM
T5 construct: purchased DiscoveRx KINOMEscan

CAMK4 = target: T6, CAMK4 (Homo sapiens, UniProt Q16566); experiment: KinomeScan; assay type: binding; details: 1uM
T6 construct: purchased DiscoveRx KINOMEscan

MRCKB = target: T7, MRCKB (Homo sapiens, UniProt Q9Y5S2); experiment: KinomeScan; assay type: binding; details: 1uM
T7 construct: purchased DiscoveRx KINOMEscan

MARK4 = target: T8, MARK4 (Homo sapiens, UniProt Q96L34); experiment: KinomeScan; assay type: binding; details: 1uM
T8 construct: purchased DiscoveRx KINOMEscan

p38-delta = target: T9, p38-delta (Homo sapiens, UniProt O15264); experiment: KinomeScan; assay type: binding; details: 1uM
T9 construct: purchased DiscoveRx KINOMEscan

ADCK4 = target: T10, ADCK4 (Homo sapiens, UniProt Q96D53); experiment: KinomeScan; assay type: binding; details: 1uM
T10 construct: purchased DiscoveRx KINOMEscan

TXK = target: T11, TXK (Homo sapiens, UniProt P42681); experiment: KinomeScan; assay type: binding; details: 1uM
T11 construct: purchased DiscoveRx KINOMEscan

EPHB3 = target: T12, EPHB3 (Homo sapiens, UniProt P54753); experiment: KinomeScan; assay type: binding; details: 1uM
T12 construct: purchased DiscoveRx KINOMEscan

ROCK1 = target: T13, ROCK1 (Homo sapiens, UniProt Q13464); experiment: KinomeScan; assay type: binding; details: 1uM
T13 construct: purchased DiscoveRx KINOMEscan

CDK4-cyclinD1 = target: T14, CDK4-cyclinD1 (Homo sapiens, UniProt P11802); experiment: KinomeScan; assay type: binding; details: 1uM
T14 construct: purchased DiscoveRx KINOMEscan

PLK4 = target: T15, PLK4 (Homo sapiens, UniProt O00444); experiment: KinomeScan; assay type: binding; details: 1uM
T15 construct: purchased DiscoveRx KINOMEscan

KIT(D816H) = target: T16, KIT(D816H) (Homo sapiens, UniProt P10721, D816H); experiment: KinomeScan; assay type: binding; details: 1uM
T16 construct: purchased DiscoveRx KINOMEscan

HUNK = target: T17, HUNK (Homo sapiens, UniProt P57058); experiment: KinomeScan; assay type: binding; details: 1uM
T17 construct: purchased DiscoveRx KINOMEscan

[1] = target: T18, ABL1(F317L)-phosphorylated (Homo sapiens, UniProt P00519, F317L); experiment: KinomeScan; assay type: binding; details: 1uM
T18 construct: purchased DiscoveRx KINOMEscan

FRK = target: T19, FRK (Homo sapiens, UniProt P42685); experiment: KinomeScan; assay type: binding; details: 1uM
T19 construct: purchased DiscoveRx KINOMEscan

CSNK1D = target: T20, CSNK1D (Homo sapiens, UniProt P48730); experiment: KinomeScan; assay type: binding; details: 1uM
T20 construct: purchased DiscoveRx KINOMEscan

DYRK1A = target: T21, DYRK1A (Homo sapiens, UniProt Q13627); experiment: KinomeScan; assay type: binding; details: 1uM
T21 construct: purchased DiscoveRx KINOMEscan

PCTK1 = target: T22, PCTK1 (Homo sapiens, UniProt Q00536); experiment: KinomeScan; assay type: binding; details: 1uM
T22 construct: purchased DiscoveRx KINOMEscan

CTK = target: T23, CTK (Homo sapiens, UniProt P42679); experiment: KinomeScan; assay type: binding; details: 1uM
T23 construct: purchased DiscoveRx KINOMEscan

IKK-alpha = target: T24, IKK-alpha (Homo sapiens, UniProt O15111); experiment: KinomeScan; assay type: binding; details: 1uM
T24 construct: purchased DiscoveRx KINOMEscan

WEE1 = target: T25, WEE1 (Homo sapiens, UniProt P30291); experiment: KinomeScan; assay type: binding; details: 1uM
T25 construct: purchased DiscoveRx KINOMEscan

TNNI3K = target: T26, TNNI3K (Homo sapiens, UniProt Q59H18); experiment: KinomeScan; assay type: binding; details: 1uM
T26 construct: purchased DiscoveRx KINOMEscan

[2] = target: T27, ABL1(Y253F)-phosphorylated (Homo sapiens, UniProt P00519, Y253F); experiment: KinomeScan; assay type: binding; details: 1uM
T27 construct: purchased DiscoveRx KINOMEscan

HPK1 = target: T28, HPK1 (Homo sapiens, UniProt Q92918); experiment: KinomeScan; assay type: binding; details: 1uM
T28 construct: purchased DiscoveRx KINOMEscan

PIK3CA(I800L) = target: T29, PIK3CA(I800L) (Homo sapiens, UniProt P42336, I800L); experiment: KinomeScan; assay type: binding; details: 1uM
T29 construct: purchased DiscoveRx KINOMEscan

HT (B-NHL) = experiment: Colony formation assay; assay type: cell-based; details: Homo sapiens, HT15, 360 h, 15 days, read-out: anti-colony formation EC50
Method: (§1) In brief, 1 mL of 3 % agarose combined with 1 mL HT, REC-1, MEC-1 and MOLM-13 growth media was used as the bottom agar in a 6-well plate. […] Cells were maintained in a humidified 5% CO2 incubator at 37°C for 15 days. On the 15th day, the numbers of colonies in each well were counted and each measurement was performed in triplicate.

MEC-1 (CLL) = experiment: Colony formation assay; assay type: cell-based; details: Homo sapiens, MEC1, 360 h; MEC-1, 15 days; read-out: anti-colony formation EC50
Method: as §1

MOLM13 (AML) = experiment: Colony formation assay; assay type: cell-based; details: Homo sapiens, MOLM-13, 360 h; MOLM13, 15 days; read-out: anti-colony formation EC50
Method: as §1

KIT(V559D) = target: T30, KIT(V559D) (Homo sapiens, UniProt P10721, V559D); experiment: KinomeScan; assay type: binding; details: 1uM
T30 construct: purchased DiscoveRx KINOMEscan

CHEK2 = target: T31, CHEK2 (Homo sapiens, UniProt O96017); experiment: KinomeScan; assay type: binding; details: 1uM
T31 construct: purchased DiscoveRx KINOMEscan

EGFR(G719S) = target: T32, EGFR(G719S) (Homo sapiens, UniProt P00533, G719S); experiment: KinomeScan; assay type: binding; details: 1uM
T32 construct: purchased DiscoveRx KINOMEscan

[3] = target: T33, RSK4(Kin.Dom.2-C-terminal) (Homo sapiens, UniProt Q9UK32); experiment: KinomeScan; assay type: binding; details: 1uM
T33 construct: RSK4(Kin.Dom.2-C-terminal); purchased DiscoveRx KINOMEscan

PHKG1 = target: T34, PHKG1 (Homo sapiens, UniProt Q16816); experiment: KinomeScan; assay type: binding; details: 1uM
T34 construct: purchased DiscoveRx KINOMEscan

ROS1 = target: T35, ROS1 (Homo sapiens, UniProt P08922); experiment: KinomeScan; assay type: binding; details: 1uM
T35 construct: purchased DiscoveRx KINOMEscan

MST1R = target: T36, MST1R (Homo sapiens, UniProt Q04912); experiment: KinomeScan; assay type: binding; details: 1uM
T36 construct: purchased DiscoveRx KINOMEscan

ERBB4 = target: T37, ERBB4 (Homo sapiens, UniProt Q15303); experiment: KinomeScan; assay type: binding; details: 1uM
T37 construct: purchased DiscoveRx KINOMEscan

T24 sequence (O15111 whole entry): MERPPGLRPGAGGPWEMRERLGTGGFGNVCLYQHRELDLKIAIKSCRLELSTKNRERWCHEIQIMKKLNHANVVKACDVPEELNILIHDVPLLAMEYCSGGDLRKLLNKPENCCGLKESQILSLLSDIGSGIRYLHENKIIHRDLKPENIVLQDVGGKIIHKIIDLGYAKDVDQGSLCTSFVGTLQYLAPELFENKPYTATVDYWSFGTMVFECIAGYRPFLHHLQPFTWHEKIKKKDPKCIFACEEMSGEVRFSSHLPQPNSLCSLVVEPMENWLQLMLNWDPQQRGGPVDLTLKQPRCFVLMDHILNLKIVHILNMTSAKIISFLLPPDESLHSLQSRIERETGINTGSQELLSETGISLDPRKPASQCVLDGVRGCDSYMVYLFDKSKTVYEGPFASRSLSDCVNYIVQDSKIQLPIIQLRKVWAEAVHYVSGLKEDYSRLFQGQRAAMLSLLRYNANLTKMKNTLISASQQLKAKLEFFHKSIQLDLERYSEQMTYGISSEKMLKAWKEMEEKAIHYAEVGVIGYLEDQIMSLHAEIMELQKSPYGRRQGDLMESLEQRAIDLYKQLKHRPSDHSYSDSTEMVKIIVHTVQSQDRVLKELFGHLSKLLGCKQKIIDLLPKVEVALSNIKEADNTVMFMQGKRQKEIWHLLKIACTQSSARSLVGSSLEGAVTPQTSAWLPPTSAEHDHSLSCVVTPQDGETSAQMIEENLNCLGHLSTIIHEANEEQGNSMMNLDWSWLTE
T7 sequence (Q9Y5S2 whole entry): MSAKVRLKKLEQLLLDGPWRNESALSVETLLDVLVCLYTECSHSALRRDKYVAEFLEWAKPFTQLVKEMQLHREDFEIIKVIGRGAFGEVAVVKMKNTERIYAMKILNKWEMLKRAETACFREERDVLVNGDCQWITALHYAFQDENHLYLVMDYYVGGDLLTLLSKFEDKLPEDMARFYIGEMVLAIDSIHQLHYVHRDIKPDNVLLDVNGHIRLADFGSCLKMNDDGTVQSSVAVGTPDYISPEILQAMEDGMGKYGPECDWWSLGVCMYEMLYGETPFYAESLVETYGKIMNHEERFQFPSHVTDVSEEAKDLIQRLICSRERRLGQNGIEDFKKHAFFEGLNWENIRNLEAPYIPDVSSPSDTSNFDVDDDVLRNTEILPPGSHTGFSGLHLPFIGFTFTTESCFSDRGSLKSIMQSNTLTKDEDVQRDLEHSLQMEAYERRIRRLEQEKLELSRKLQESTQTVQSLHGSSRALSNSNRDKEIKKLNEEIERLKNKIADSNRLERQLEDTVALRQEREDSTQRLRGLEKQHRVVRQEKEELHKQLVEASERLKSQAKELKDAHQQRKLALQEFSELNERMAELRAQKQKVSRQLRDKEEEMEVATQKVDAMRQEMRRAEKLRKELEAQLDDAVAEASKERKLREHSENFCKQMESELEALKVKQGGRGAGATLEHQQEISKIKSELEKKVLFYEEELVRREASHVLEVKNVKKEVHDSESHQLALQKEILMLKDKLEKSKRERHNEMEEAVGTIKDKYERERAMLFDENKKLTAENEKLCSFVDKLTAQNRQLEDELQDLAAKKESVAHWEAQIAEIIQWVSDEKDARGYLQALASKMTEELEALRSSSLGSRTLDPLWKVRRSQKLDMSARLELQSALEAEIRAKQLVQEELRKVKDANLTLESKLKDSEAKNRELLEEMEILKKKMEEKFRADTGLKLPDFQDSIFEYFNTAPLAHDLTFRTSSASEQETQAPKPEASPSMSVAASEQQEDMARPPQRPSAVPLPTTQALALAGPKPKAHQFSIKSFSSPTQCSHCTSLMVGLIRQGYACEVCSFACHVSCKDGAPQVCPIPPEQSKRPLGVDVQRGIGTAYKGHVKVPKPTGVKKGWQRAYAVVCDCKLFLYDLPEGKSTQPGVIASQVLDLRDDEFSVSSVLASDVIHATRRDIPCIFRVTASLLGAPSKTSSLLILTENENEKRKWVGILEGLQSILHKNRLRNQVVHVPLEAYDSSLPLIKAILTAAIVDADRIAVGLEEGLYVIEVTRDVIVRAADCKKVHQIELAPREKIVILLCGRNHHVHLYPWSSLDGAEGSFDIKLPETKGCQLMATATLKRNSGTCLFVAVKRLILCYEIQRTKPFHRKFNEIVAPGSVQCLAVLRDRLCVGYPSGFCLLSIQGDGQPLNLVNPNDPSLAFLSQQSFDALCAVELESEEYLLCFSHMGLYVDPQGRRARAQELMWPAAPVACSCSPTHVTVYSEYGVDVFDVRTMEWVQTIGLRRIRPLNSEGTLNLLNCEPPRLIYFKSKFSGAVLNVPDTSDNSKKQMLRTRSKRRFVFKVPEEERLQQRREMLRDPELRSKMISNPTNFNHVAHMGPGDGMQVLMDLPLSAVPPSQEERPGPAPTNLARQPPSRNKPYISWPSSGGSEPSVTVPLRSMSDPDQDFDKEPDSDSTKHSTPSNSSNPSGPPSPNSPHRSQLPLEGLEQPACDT
T11 sequence (P42681 whole entry): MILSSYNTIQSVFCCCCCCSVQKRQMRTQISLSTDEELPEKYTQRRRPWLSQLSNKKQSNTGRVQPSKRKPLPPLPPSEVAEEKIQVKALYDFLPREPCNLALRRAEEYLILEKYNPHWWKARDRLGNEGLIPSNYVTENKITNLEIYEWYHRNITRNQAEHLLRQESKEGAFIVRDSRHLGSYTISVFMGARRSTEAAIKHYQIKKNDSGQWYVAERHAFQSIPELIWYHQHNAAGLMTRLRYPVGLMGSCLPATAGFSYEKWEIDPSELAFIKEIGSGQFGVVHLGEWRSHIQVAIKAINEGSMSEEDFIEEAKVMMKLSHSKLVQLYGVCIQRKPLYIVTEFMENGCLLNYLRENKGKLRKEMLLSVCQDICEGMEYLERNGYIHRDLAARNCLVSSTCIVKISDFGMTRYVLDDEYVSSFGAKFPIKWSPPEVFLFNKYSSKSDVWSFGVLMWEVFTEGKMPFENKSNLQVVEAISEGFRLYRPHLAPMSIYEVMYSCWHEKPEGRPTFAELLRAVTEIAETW
T9 sequence (O15264 whole entry): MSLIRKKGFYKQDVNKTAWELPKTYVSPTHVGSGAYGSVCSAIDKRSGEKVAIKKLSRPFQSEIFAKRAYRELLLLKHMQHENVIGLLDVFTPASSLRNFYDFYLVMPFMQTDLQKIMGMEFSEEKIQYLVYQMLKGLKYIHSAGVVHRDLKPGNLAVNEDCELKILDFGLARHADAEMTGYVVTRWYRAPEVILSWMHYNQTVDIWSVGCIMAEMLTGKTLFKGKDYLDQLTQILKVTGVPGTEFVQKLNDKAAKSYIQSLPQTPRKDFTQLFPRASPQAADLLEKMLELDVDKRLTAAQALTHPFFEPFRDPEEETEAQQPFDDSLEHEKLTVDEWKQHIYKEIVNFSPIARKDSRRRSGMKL
T17 sequence (P57058 whole entry): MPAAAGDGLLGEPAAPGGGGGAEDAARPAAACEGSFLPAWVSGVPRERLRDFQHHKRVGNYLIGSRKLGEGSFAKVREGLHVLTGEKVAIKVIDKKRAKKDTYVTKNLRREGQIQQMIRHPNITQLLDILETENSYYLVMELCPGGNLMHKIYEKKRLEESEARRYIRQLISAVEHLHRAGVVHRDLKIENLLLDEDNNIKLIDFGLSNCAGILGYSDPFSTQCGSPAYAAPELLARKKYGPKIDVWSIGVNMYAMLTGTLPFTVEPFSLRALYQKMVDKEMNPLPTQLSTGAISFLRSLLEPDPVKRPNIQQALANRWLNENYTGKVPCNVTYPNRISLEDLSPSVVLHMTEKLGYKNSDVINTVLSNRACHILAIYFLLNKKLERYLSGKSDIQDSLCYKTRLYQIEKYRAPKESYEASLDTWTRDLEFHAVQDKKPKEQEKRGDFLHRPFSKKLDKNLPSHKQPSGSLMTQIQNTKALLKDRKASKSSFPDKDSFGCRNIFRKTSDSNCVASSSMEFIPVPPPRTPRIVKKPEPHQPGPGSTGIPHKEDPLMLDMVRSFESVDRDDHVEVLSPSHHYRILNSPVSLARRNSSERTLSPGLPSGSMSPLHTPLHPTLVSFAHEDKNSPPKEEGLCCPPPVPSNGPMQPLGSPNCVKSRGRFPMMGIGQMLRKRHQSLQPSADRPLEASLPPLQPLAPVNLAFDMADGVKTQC
T10 sequence (Q96D53 whole entry): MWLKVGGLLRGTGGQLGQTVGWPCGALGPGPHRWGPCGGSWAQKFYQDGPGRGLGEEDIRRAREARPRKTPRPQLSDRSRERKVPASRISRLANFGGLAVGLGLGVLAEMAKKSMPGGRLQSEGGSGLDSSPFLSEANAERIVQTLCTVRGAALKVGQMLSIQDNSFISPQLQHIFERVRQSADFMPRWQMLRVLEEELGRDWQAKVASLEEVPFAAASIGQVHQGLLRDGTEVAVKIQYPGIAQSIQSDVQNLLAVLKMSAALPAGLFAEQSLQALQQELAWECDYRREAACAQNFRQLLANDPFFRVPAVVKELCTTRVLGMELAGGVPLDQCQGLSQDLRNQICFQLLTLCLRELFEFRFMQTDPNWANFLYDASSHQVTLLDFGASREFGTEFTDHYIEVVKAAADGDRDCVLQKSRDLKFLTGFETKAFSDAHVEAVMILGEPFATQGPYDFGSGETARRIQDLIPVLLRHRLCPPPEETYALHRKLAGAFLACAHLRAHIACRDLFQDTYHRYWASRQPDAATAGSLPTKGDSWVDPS
T34 sequence (Q16816 whole entry): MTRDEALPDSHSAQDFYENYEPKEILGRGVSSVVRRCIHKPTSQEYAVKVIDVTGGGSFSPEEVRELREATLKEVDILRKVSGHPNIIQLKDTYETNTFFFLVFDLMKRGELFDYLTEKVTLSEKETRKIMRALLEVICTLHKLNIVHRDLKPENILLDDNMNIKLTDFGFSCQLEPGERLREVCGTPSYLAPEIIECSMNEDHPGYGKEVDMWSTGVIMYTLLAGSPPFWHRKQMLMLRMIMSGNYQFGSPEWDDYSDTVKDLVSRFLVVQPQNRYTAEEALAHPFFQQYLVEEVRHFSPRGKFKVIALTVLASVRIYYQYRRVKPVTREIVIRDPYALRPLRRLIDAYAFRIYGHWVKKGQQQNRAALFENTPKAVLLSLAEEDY

In the case of `Cc1nc(NC(=O)[C@@H](N)C(C)C)sc1-c1cnc(Cl)c(NS(=O)(=O)c2ccccc2)c1` [PI3KD-IN-015], the “KinomeScan NDR2” value (NDR2) was 100, the “KinomeScan TIE2” value (TIE2) was 89 and the “KinomeScan ERK2” value (ERK2) was 100. The “KinomeScan FLT3(D835H)” value (FLT3(D835H)) was 94, the “KinomeScan CLK4” value (CLK4) was 100 and the “KinomeScan CAMK4” value (CAMK4) was 89. The “KinomeScan MRCKB” value (MRCKB) was 91, the “KinomeScan MARK4” value (MARK4) was 100 and the “KinomeScan p38-delta” value (p38-delta) was 98. For the same molecule, the “KinomeScan ADCK4” value (ADCK4) was 95, the “KinomeScan TXK” value (TXK) was 100 and the “KinomeScan EPHB3” value (EPHB3) was 100. For the same molecule, the “KinomeScan ROCK1” value (ROCK1) was 100, the “KinomeScan CDK4-cyclinD1” value (CDK4-cyclinD1) was 90 and the “KinomeScan PLK4” value (PLK4) was 99. The “KinomeScan KIT(D816H)” value (KIT(D816H)) was 92, the “KinomeScan HUNK” value (HUNK) was 100 and the “KinomeScan ABL1(F317L)-phosphorylated” value [1] was 99. The “KinomeScan FRK” value (FRK) was 97, the “KinomeScan CSNK1D” value (CSNK1D) was 79 and the “KinomeScan DYRK1A” value (DYRK1A) was 89. For the same molecule, the “KinomeScan PCTK1” value (PCTK1) was 93, the “KinomeScan CTK” value (CTK) was 93 and the “KinomeScan IKK-alpha” value (IKK-alpha) was 95. The “KinomeScan WEE1” value (WEE1) was 100, the “KinomeScan TNNI3K” value (TNNI3K) was 95 and the “KinomeScan ABL1(Y253F)-phosphorylated” value [2] was 100. The “KinomeScan HPK1” value (HPK1) was 87, the “KinomeScan PIK3CA(I800L)” value (PIK3CA(I800L)) was 0.5 and the pEC50 (HT (B-NHL)) was 6.43. The pEC50 (MEC-1 (CLL)) was 6.12, the pEC50 (MOLM13 (AML)) was 6.67 and the “KinomeScan KIT(V559D)” value (KIT(V559D)) was 87. For the same molecule, the “KinomeScan CHEK2” value (CHEK2) was 88, the “KinomeScan EGFR(G719S)” value (EGFR(G719S)) was 100 and the “KinomeScan RSK4(Kin.Dom.2-C-terminal)” value [3] was 99. For the same molecule, the “KinomeScan PHKG1” value (PHKG1) was 100, the “KinomeScan ROS1” value (ROS1) was 99 and the “KinomeScan MST1R” value (MST1R) was 86. For the same molecule, the “KinomeScan ERBB4” value (ERBB4) was 98.
